Test results: the METLIN SMRT retention time set (Domingo-Almenara et al. 2019)

Assay: gradient 5% acetonitrile 3 min, to 50% in 2 min, to 85% in 15 min, held 3 min, 100 µL/min
Conditions: column: Zorbax Extend-C18 2.1 x 50 mm; eluents: water / acetonitrile, 0.1% formic acid
Summary of the method: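 Retention time was recorded from adduct peaks, which were picked computationally and each inspected manually. Pure standards ran in mixtures of ~100 molecules on HPLC coupled to a quadrupole time-of-flight mass spectrometer, in positive and negative ionization mode, through a Zorbax Extend-C18 column (2.1 × 50 mm, 1.8 μm) at 100 μL/min. Eluents were water and acetonitrile, each with 0.1% formic acid.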

| SMILES | RP-LC retention time |
| --- | --- |
| CCn1cc(-c2nc(CC(=O)Nc3ccc4c(c3)OCCO4)cs2)c2cccnc21 | 925 s |
| Cn1nccc1-c1cccc(-c2noc(-c3ccc(F)cc3F)n2)c1 | 1120 s |
| O=c1n(Cc2c(F)cccc2Cl)nc2c(S(=O)(=O)N3CCc4ccccc4C3)cccn12 | 975 s |
| CN(C)c1ccc(CNS(=O)(=O)c2cc(-c3nc(C(C)(C)C)cs3)cs2)cc1 | 1100 s |
| COc1ccc(S(=O)(=O)Nc2cc(-c3cn4ccccc4n3)ccc2C)cc1 | 797 s |
| Cc1nn(CC(=O)N2CCCCCC2)c(=O)c2c(-n3cccc3)n(-c3ccccc3)nc12 | 978 s |
| Cn1cnc(S(=O)(=O)N2CC(c3nc(CCOCc4ccccc4)no3)C2)c1 | 745 s |
| CCOc1ccccc1CNC(=O)c1cnc(OC)nc1 | 702 s |
| NS(=O)(=O)c1ccc(CCNC(=O)CCCn2cccc2)cc1 | 627 s |
| O=S(=O)(c1cccc(-c2nc(-c3ccccc3)no2)c1)N1CCc2ccccc21 | 1320 s |
| O=c1ccc(-c2nc(-c3ccncc3)no2)nn1Cc1ccc(Cl)cc1 | 909 s |
| C=CCNc1nc(-c2ccc(Cl)cc2)cs1 | 984 s |
| O=C(CN1N=C(c2ccccc2)c2ccccc2S1(=O)=O)Nc1cccc(Cl)c1 | 1020 s |
| COCCCNC(=O)c1cccnc1N1CCNC(c2ccccc2)C1 (stereo unspecified) | 578 s |
| Cc1[nH]nc(-c2c(C)sc(C)c2S(=O)(=O)Nc2cccc(Cl)c2)c1C | 1100 s |
| Cc1ccc(N2C(=O)C3N=NN(c4ccc(C)c(Cl)c4)C3C2=O)cc1F (stereo unspecified) | 836 s |
| Cc1cccc(-c2ncccc2CNS(=O)(=O)c2cc(F)ccc2C)c1 | 774 s |
| C=CCNC(=O)c1cc2n(n1)CCCC2 | 646 s |
| O=C(Nc1ccccc1NC(=O)c1ccc(Br)o1)c1cccnc1 | 669 s |
| CCOc1ccccc1-n1nnc(C(=O)OC)c1C(=O)OC | 862 s |
| COc1ccc(OCC(=O)N2CCN(c3nccn3-c3ccccc3F)CC2)cc1 | 573 s |

| SMILES | RP-LC retention time |
| --- | --- |
| CCOC(=O)C1CC(=O)c2cc(OC)c(OC)cc2C1 (stereo unspecified) | 812 s |
| CCCCCn1c(=O)c2ccccc2n(Cc2nc(-c3ccccc3Cl)no2)c1=O | 1260 s |
| CC1CC(=O)c2cnc(N3CCN(Cc4ccccc4)CC3)nc2C1 (stereo unspecified) | 643 s |
| NC(=O)c1ccc(Cl)c2ccccc12 | 777 s |
| COc1cccc(N2CCN(S(=O)(=O)c3cc(-c4cc(C(F)(F)F)[nH]n4)sc3C)CC2)c1 | 1120 s |
| O=C(CCC1CCCN(S(=O)(=O)c2ccccc2F)C1)NCCc1ccccc1 (stereo unspecified) | 952 s |
| Cc1ccccc1-c1noc(CCc2nnc3ccc(N4CCN(c5ccccn5)CC4)nn23)n1 | 647 s |
| CCn1cc(S(=O)(=O)N2CCC(c3noc(COCC4CC4)n3)CC2)cn1 | 841 s |
| O=C(NC1(N2CCOCC2)CC1)c1ccc(Cl)cc1 | 667 s |
| Cc1csc(-c2cc(S(=O)(=O)N3CCN(C(C)C)CC3)cn2CC(=O)N2CCCCC2)n1 | 688 s |
| CS(=O)(=O)Nc1ccc(N2CCCCS2(=O)=O)cc1 | 615 s |
| COc1ccc(OC)c(S(=O)(=O)N2CCCC(C(=O)NC3CC3)C2)c1 (stereo unspecified) | 710 s |
| CCN1CCCn2cc(S(=O)(=O)NCc3ccc(OC)cc3)cc2C1=O | 698 s |
| CCOC(=O)c1cccc(Nc2c(-c3ccc4c(c3)OCO4)nc3cnccn23)c1 | 834 s |
| Cc1cccc(Nc2ncccc2S(N)(=O)=O)c1 | 811 s |
| O=C(N1CCC(Cc2ccc(COc3cccnc3)cc2)CC1)C1(c2ccccc2)CC1 | 891 s |
| Cc1ccccc1Nc1c(-c2c(F)cccc2Cl)nc2cccc(C)n12 | 762 s |
| O=C(Nc1ccc(S(=O)(=O)N2CCCCC2c2cccnc2)cc1)c1ccccc1F (stereo unspecified) | 617 s |
| Fc1cccc(-c2nc3ncccn3c2NCc2ccc(Cl)cc2)c1 | 834 s |
| O=C(NCCc1ccsc1)Nc1ccccc1C(F)(F)F | 842 s |
| CCCN1CC[C@@H]2c3cc(O)ccc3CC[C@@H]21 | 593 s |

Further lines, results first:

| RP-LC retention time | SMILES |
| --- | --- |
| 766 s | C=CCNC(=O)C1CCCN(C(=O)Nc2ccc(NC(=O)Nc3ccc(C)c(C)c3)cc2)C1 (stereo unspecified) |
| 792 s | Cc1ccccc1CN1CCN(CC(=O)Nc2cccc(Cl)c2C)C(=O)C1=O |
| 784 s | Cc1ccc(CNC(=O)C2(C)Cn3cnc(C(=O)N4CCCCC4)c3C(=O)N2C2CC2)cc1 (stereo unspecified) |
| 882 s | Cc1nc(-c2cc(S(=O)(=O)N3CCC(C(=O)NCc4cccs4)CC3)c(C)s2)no1 |
| 681 s | COc1ccc(NC(=O)Cn2cnc3nc(N4CCC(C(=O)NC5CC5)CC4)sc3c2=O)cc1 |
| 862 s | Cc1ccc(CNC(=O)C2CCN(S(=O)(=O)c3ccc4c(c3)sc(=O)n4C)CC2)cc1 |
| 853 s | Cc1ccc(Cl)cc1NC(=O)N1CCCC1c1c(C)noc1C (stereo unspecified) |
| 908 s | COC(=O)c1ccc2c(=O)n(-c3ccccc3)c(N3CCCC3)nc2c1 |
| 703 s | O=C(NCc1ccc2c(c1)OCO2)C1CCN(C(=O)C2Sc3ccccc3NC2=O)CC1 (stereo unspecified) |
| 785 s | CCOc1ccc(NC(=O)C2CCCN2S(=O)(=O)c2cc3c(cc2Cl)NC(=O)CO3)cc1 (stereo unspecified) |
| 658 s | CCCC(NC(=O)c1ccc(OC)cc1)C(=O)Nc1nc2ccccc2[nH]1 (stereo unspecified) |
| 824 s | CCOc1ccc(NC(=O)Cn2c(=O)n(-c3ccc(C)cc3)c(=O)c3c2cc(C)n3C)cc1 |
| 856 s | CCOC(=O)c1ccc(NC(=O)N2CCCC2c2cc(CC)no2)cc1 (stereo unspecified) |
| 616 s | COC(=O)C(Cc1ccccc1)NC(=O)N1CCCn2nc(-c3cccnc3)cc2C1 (stereo unspecified) |
| 635 s | COc1cc(C(=O)N2CCN(c3cc(C)c4ccccc4n3)CC2)cc(OC)c1OC |
| 685 s | CCCNC(=O)C1CCN(c2ccc(SCC(=O)Nc3cc(C)cc(C)c3)nn2)CC1 |
| 666 s | Cc1nnc(C(C)C)n1C1C[C@H]2CC[C@@H](C1)N2CC[C@H](NC(=O)C1CCC(F)(F)CC1)c1ccccc1 (stereo partly specified) |
| 932 s | CCn1c(=O)sc2cc(S(=O)(=O)N3CCC(C(=O)Nc4cc(C)ccc4C)CC3)ccc21 |
| 593 s | Cc1ccc(NC(=O)Cn2nnc(C(=O)NCc3cccs3)c2N)cc1 |
| 722 s | Cc1ccn2cc(-c3ccc(NC(=O)CCC4CCCC4)cc3)nc2n1 |
| 936 s | Cc1cc(F)ccc1NC(=O)c1cc(C2CC2)on1 |
| 778 s | COc1cc(NC(=O)N2CCCC(C)(C(=O)NCc3ccc(F)cc3)C2)cc(OC)c1OC (stereo unspecified) |
| 680 s | CCN1CCCn2cc(S(=O)(=O)Nc3ccc(OC)cc3)cc2C1=O |
| 723 s | Cc1ccc(C)c(CNC(=O)C2CCCN(c3cnn(C)c(=O)c3)C2)c1 (stereo unspecified) |
